Experimental data taken from patent publication US20070286890A1, “Eyelash applicator and method” (priority 2006, published 2007).

Test system: eyelashes of healthy female volunteers
Assay: Open-label study of Lumigan applied with an applicator to the upper eyelid margin, four months
Format: in vivo, human
[1] = one drop on applicator tip, applied to lid margin of both upper eyelids before bedtime, through week 12, 25 volunteers, no controls, preliminary findings

CCNC(=O)CCC/C=C\C[C@@H]1[C@@H](/C=C/[C@@H](O)CCc2ccccc2)[C@H](O)C[C@@H]1O [Lumigan®, cyclopentane N-ethyl heptanamide-5-cis-2-(3α-hydroxy-5-phenyl-1trans-pentenyl)-3,5-dihydroxy, [1α,2β,3α,5α]]
Darker and thicker lashes, additional lashes [1]: many grew darker and thicker lashes as well as additional lashes
Eyelash length (longer lashes) [1]: Every participant grew longer lashes
Growth of lower lid lashes and eyebrow hairs (patients applied Lumigan "on their own" to these areas): grew lower lid lashes and eyebrow hairs
Side effects (vision, IOP, ocular irritation, periocular pigmentary changes) (topical application to upper eyelid margin, through week 12, visits up to week 16, preliminary findings): Minimal Side Effects
